# Reference: article PMC1968247 (British Journal of Cancer, 1993)
# Like-named read-outs stand apart in the source and are kept apart here.
# What was measured:
# [1] = test system: bone marrow; conditions: 24 h
# Protocol: (§1) Br. J. Cancer (1993), 67, 441 446 t? […] Bibby Clinical Oncology Unit, University of Bradford, West Yorkshire, BD7 JDP, UK. […] In vivo anti-tumour activity was examined against three transplantable adenocarcinomas of the mouse colon and in vivo bone marrow toxicity was assessed using a spleen colony forming unit assay. The pharmacokinetic behaviour of the drug in vivo and drug stability in vitro was analysed by gas chromatography with electron capture detection. […] Clinical responses to cytotoxic agents have been largely restricted to the haematological malignancies while the majority of human solid tumours have remained refractory to chemotherapy (Marsoni et al., 1987). […] However, their clinical usefulness has been limited by non-selective host toxicity, particularly myelosuppres- sion. The chloroethylnitrosoureas decompose spontaneously in aqueous solution to generate reactive intermediates that are capable of alkylating and carbamoylating nucleophilic targets (Cheng et al., 1972). Alkylation reactions consist of chloroethylations and hydroxyethylations of DNA (Tong et al., 1982). Chloroethylation of 06-guanine with subsequent cross-link formation is considered to be the most important cytotoxic reaction (Lown et al., 1978) while hydroxyethyla- tion reactions are thought to be responsible for their mutagenic and carcinogenic effects (Pelfrene et al., 1976; Swenson et al., 1979). […] In the search for other types of compound that would chloroethylate DNA, a series of 2-haloethylsulphonates was synthesised (Shealy et al., 1983). […] Recently, the NCI has introduced a new disease-orientated screening programme based on the assessment of the in vitro cytotoxicity of a panel of cell lines representing the common clinical forms of human cancers using a colorimetric assay (Boyd, 1989). […] One reason for this discrepancy is that the in vitro tests ignore the potential role played by the pharmacokinetic behaviour and bioavailability of a drug in determining tumour responses in vivo. […] It has been used extensively as part of the pre-clinical evaluation of new anti-cancer agents within the Screening and Pharmacology Group of the EORTC (Bibby et al., 1988b). The feasibility of performing minimal toxicity studies in conjunction with anti-tumour studies has been described (Bibby et al., 1988b). […] Correspondence: A.M. Matthew. Received 6 December 1991; and in revised form 13 October 1992. Br. J. Cancer (1993), 67, 441-446 '?" Macmillan Press Ltd., 1993 442 A.M. MATIHEW et al. ethylating agents with improved therapeutic indices. The assessment of stem cell survival has been recommended to study irreversible cytotoxic bone marrow injury (Schofield, 1986) and this can be performed readily in mice using a spleen colony forming unit assay. […] In vitro activity was assessed against a panel of established murine and human tumour cell lines while in vivo anti-tumour responses were evaluated against an ascitic tumour, MAC 15A, and two solid subcutaneous (sc) tumours, MAC 13 and MAC 26. MAC 13 is relatively nitrosourea-sensitive due to a low level of the repair enzyme 06-alkylguanine-DNA alkyltransferase while MAC 26 is relatively nitrosourea-resistant due to a high repair enzyme level (Lunn et al., 1989). In vivo bone marrow toxicity and pharmacokinetic studies and in vitro drug stability studies were performed in conjunction with the anti-tumour studies. […] Chlorozotocin was dissolved in 10% dimethylsulphoxide (DMSO)/arachis oil. Drug solutions were prepared at an appropriate concentration for the desired in vivo dose to be administered in 0.1 ml per 10 g body weight by intra- peritoneal (ip) or intravenous (iv) injection and for the desired final concentration in vitro to be achieved upon a 1 in 10 dilution. […] Chemosensitivity testing In vitro chemosensitivity was assessed using a modified micro-tetrazolium (MTT) assay (Twenty- man & Luscombe, 1987).
# [2] = test system: MAC 26 tumours; conditions: for Tumour growth delay: MAC 26; for Survivors: MAC 26 bearers
# Protocol: as §1
# [3] = test system: MAC 15A ascites tumour; assay: Anti-tumour activity against MAC 15A (median survival time); type: in vivo, NMRI mice; conditions: 60 mg kg-1 ip
# Protocol: as §1
# [4] = test system: MAC 13 tumours; assay: Anti-tumour activity against MAC 13 (tumour weight); type: in vivo, NMRI mice; conditions: 60 mg kg-1 ip
# Protocol: as §1
# [5] = Maximum tolerated dose, full dose range to the point of toxicity; conditions: NMRI, mouse, in vivo, ip
# Protocol: Br. J. Cancer (1993), 67, 441 446 t? […] Bibby Clinical Oncology Unit, University of Bradford, West Yorkshire, BD7 JDP, UK. […] In vivo anti-tumour activity was examined against three transplantable adenocarcinomas of the mouse colon and in vivo bone marrow toxicity was assessed using a spleen colony forming unit assay. The pharmacokinetic behaviour of the drug in vivo and drug stability in vitro was analysed by gas chromatography with electron capture detection. […] Clinical responses to cytotoxic agents have been largely restricted to the haematological malignancies while the majority of human solid tumours have remained refractory to chemotherapy (Marsoni et al., 1987). […] However, their clinical usefulness has been limited by non-selective host toxicity, particularly myelosuppres- sion. The chloroethylnitrosoureas decompose spontaneously in aqueous solution to generate reactive intermediates that are capable of alkylating and carbamoylating nucleophilic targets (Cheng et al., 1972). Alkylation reactions consist of chloroethylations and hydroxyethylations of DNA (Tong et al., 1982). Chloroethylation of 06-guanine with subsequent cross-link formation is considered to be the most important cytotoxic reaction (Lown et al., 1978) while hydroxyethyla- tion reactions are thought to be responsible for their mutagenic and carcinogenic effects (Pelfrene et al., 1976; Swenson et al., 1979). […] The assessment of stem cell survival has been recommended to study irreversible cytotoxic bone marrow injury (Schofield, 1986) and this can be performed readily in mice using a spleen colony forming unit assay. […] In vitro activity was assessed against a panel of established murine and human tumour cell lines while in vivo anti-tumour responses were evaluated against an ascitic tumour, MAC 15A, and two solid subcutaneous (sc) tumours, MAC 13 and MAC 26. […] Chemosensitivity testing In vitro chemosensitivity was assessed using a modified micro-tetrazolium (MTT) assay (Twenty- man & Luscombe, 1987).
compound,measurement,setting,value
"O=NN(CCCl)C(=O)N[C@H]1C(O)O[C@H](CO)[C@@H](O)[C@@H]1O (stereo partly drawn) [Chlorozotocin, reference compound]",Survival fraction,[1]; 15 mg kg-1 ip,0.86
same,Survival fraction,[1]; 30 mg kg-1 ip,0.80
same,Tumour growth delay,[2]; 60 mg kg-1 ip,0 days
same,Tumour growth delay,[2]; 80 mg kg-1 ip,Toxic
same,Survivors,[2]; 60 mg kg-1 ip,9/9
same,Survivors,[2]; 80 mg kg-1 ip,3/9
same,T/C%,[3],288%
same,% Tumour weight inhibition,[4],59.2%
same,MTD,[5],60 mg/kg
